What was measured:
obese mouse model = test: Glucose tolerance in high-fat-diet obese mouse model; type: in vivo, C57BL/6N male mice; conditions: obese mice, 2.5 mg/kg
Experimental: 5-week-old C57BL/6N male mice were obtained from Orient Bio, fed a normal diet, and used after an adaptation period of one week. The breeding environment was maintained at 18 to 24° C. and a humidity of 50 to 60%, and the animals were given free access to feed and water during both the adaptation period and the experimental period. After the one-week adaptation period, the mice were induced to become obese through a high-fat diet to induce impaired glucose tolerance.
The mice in which obesity was induced were divided into a control and an experimental group. All mice were fasted for 12 hours, and PBS and a peptide (No. 1, 7, or 8; 2.5 mg/kg) were administered to the control and the experimental group, respectively. One hour later, a 20% glucose solution was intraperitoneally injected, and blood collected at each time period was analyzed using a blood glucose analyzer.

S6 (mTOR marker) = test: S6 phosphorylation in L6 skeletal muscle cells (western blotting); type: cell-based; conditions: 100 nM, 1 hour; for phosphorylation of S6 (mTOR marker): FIG. 8
Experimental: (§1) L6 skeletal muscle cells were cultured in a 6-well plate and then starved with 0.5% FBS. Thereafter, the cells were treated with an antidiabetic peptide at a concentration of 100 nM for 1 hour, proteins were collected, and then western blotting was performed.

[1] = system: adipocyte protein 2 (AP2); test: AP2 gene expression in muscle tissue of db/db mice; type: in vivo, db/db diabetic mouse model; conditions: db/db mice muscle tissue RNA, 2.5 mg/kg intraperitoneally, 8 weeks
Experimental: (§2) It was confirmed whether the antidiabetic peptide relieves diabetes mellitus induced by leptin receptor defects. As an animal model, 5-week-old C57BLKS/J-db/db male mice were provided by Central Lab. Animal Inc., fed a normal diet, and used after an adaptation period of one week. The breeding environment was maintained at 18 to 24° C. and a humidity of 50 to 60%, and the animals were given free access to normal feed and water during both the adaptation period and the experimental period. Mice that completed the adaptation period were divided into a control (intraperitoneal injection) and a peptide administration group. PBS and antidiabetic peptides (Nos. 7 and 8; 2.5 mg/kg) were intraperitoneally administered to the control and peptide administration groups, respectively, for a total of 8 weeks.
(§3) Various tissue examinations were performed on a db/db diabetic mouse model to confirm the efficacy of relieving diabetic complications. First, in order to confirm muscle loss-related effects, RNA was isolated from muscle tissue and the expression levels of muscle loss-related genes were confirmed. […]

[2] = system: peroxisome proliferator-activated receptor α (PPARα); test: PPARα gene expression in muscle tissue of db/db mice; type: in vivo, db/db diabetic mouse model; conditions: db/db mice muscle tissue RNA, 2.5 mg/kg intraperitoneally, 8 weeks
Experimental: as §2, §3

[3] = system: CCAAT enhancer binding protein α (C/EBPα); test: C/EBPα gene expression in muscle tissue of db/db mice; type: in vivo, db/db diabetic mouse model; conditions: db/db mice muscle tissue RNA, 2.5 mg/kg intraperitoneally, 8 weeks
Experimental: as §2, §3

[4] = system: muscle RING Finger-1 (Murf-1); test: Murf-1 gene expression in muscle tissue of db/db mice; type: in vivo, db/db diabetic mouse model; conditions: db/db mice muscle tissue RNA, 2.5 mg/kg intraperitoneally, 8 weeks
Experimental: as §2, §3

FoxO1 = FoxO1 phosphorylation and expression in L6 skeletal muscle cells (western blotting); type: cell-based; conditions: 100 nM, 1 hour
Experimental: as §1

[5] = system: glucose transporter type 4 (GLUT4); test: GLUT4 translocation to the cell membrane in C2C12 skeletal muscle cells; type: cell-based; conditions: 100 nM, 1 hour, FIG. 3: Nos. 1 to 8 and insulin
Experimental: Similarly, in order to further verify the function of promoting glucose metabolism by antidiabetic peptide treatment, the degree of expression of a glucose transporter type 4 (GLUT4) glucose receptor, which plays an important role in glucose uptake, in the cell membrane was measured. It is known that GLUT4 moves from the cytoplasm to the cell membrane to promote sugar metabolism, and thus the expression level thereof increases. To confirm this, C2C12 skeletal muscle cells were starved with 0.5% FBS and then treated with the peptide and insulin, which is a positive control, at a concentration of 100 nM for 1 hour. Cells were fixed with 4% paraformaldehyde, incubated with a GLUT4-specific antibody at 37° C. for 30 minutes, reacted with an o-phenylenediamine (OPD) solution, and absorbance was measured and compared with that of the control.

AGSIREAGGAFGKREQAEEERYFR (listed as Homo sapiens) [No. 7]
change in blood sugar over time (GLUAUC) reduced compared to the control (obese mouse model; after baseline correction): 31.1% | phosphorylation of S6 (mTOR marker) (S6 (mTOR marker)): increased | AP2 gene expression change [1]: −52.5% | PPARα gene expression change [2]: +94.1% | C/EBPα gene expression change [3]: −18.6% | Murf-1 gene expression change [4]: −90.1%

AQSREQLAALKK (listed as Homo sapiens) [No. 5]
phosphorylation of S6 protein, increase (S6 (mTOR marker)): 494%

EQAEEER (listed as Homo sapiens) [No. 2]
phosphorylation of S6 protein, increase (S6 (mTOR marker)): 365%

EQAEEERYFR (listed as Homo sapiens) [No. 4]
phosphorylation of S6 protein, increase (S6 (mTOR marker)): 224%

REAGGAFGKR (listed as Homo sapiens) [No. 3]
phosphorylation of S6 (mTOR marker) (S6 (mTOR marker)): increased

VDRGAGSIREAGGAFGKREQAEEERYFR (listed as Homo sapiens) [No. 8]
blood sugar metabolism after glucose injection, baseline corrected, compared to the control (obese mouse model; fasted 12 hours, 20% glucose intraperitoneally one hour later, FIG. 4 left): significantly improving | phosphorylation of S6 protein, increase (S6 (mTOR marker)): 414% | AP2 gene expression change [1]: −54.7% | PPARα gene expression change [2]: +12.9% | C/EBPα gene expression change [3]: −45.5% | Murf-1 gene expression change [4]: −36.0%

YFR (listed as Homo sapiens) [No. 1]
phosphorylation of S6 protein, increase (S6 (mTOR marker)): 188% | expression level of total FoxO1 (FoxO1): decreased | phosphorylation of FoxO1 (FoxO1; FIG. 9: Nos. 1 to 8): increased

YFRAQSREQLAALKKHH (listed as Homo sapiens) [No. 6]
phosphorylation of S6 (mTOR marker) (S6 (mTOR marker)): increased

insulin
GLUT4 translocation compared to the control [5]: significant GLUT4 translocation

Source: patent US20240335499A1, “PEPTIDE HAVING ANTIDIABETIC ACTIVITY AND USE THEREOF” (MEDI&GENE INC., priority 2021, published 2024)
